Test results published in US20090012085A1, “DOSAGE FORMS AND METHODS OF TREATMENT USING A TYROSINE KINASE INHIBITOR” (priority 2005, published 2009).
Read-outs that look alike come from different tables or passages of the source.

Test: Phase I dose-escalating study, plasma pharmacokinetics in patients with solid tumor
Assay type: in vivo, human
Details: for Tmax: read-out: tmax, mean (% CV); for concentration at 4 h: nominal time 4 h; for concentration at 12 h: nominal time 12 h; for accumulation of the drug with continuous dosing: plasma exposures on Day 28 of dosing, compared to 4/1 schedule
Procedure: Cmax values, or maximum total plasma concentrations, of a compound of formula 1 can be measured according to techniques well known to those skilled in the art. For example, after a compound of formula 1 has been administered to a mammal, blood samples can be taken at fixed time points over a period of time (e.g. 24 hours) and the serum or plasma concentration of compound of formula 1 can be measured using standard analytical techniques known in the art. In vivo determinations Cmax can then be made by plotting the serum or plasma concentration of compound of formula 1 along the ordinate (y-axis) against time along the abscissa (x-axis).
The maleate salt of compound 1 was administered to human patients with solid tumor malignancies not amenable to conventional therapies in a Phase I dose-escalating multicenter study. The types of tumor malignancies included colorectal carcinoma, renal cell carcinoma, esophageal carcinoma, thymus carcinoma, mastocytosis, lung cancer and multiple endocrine neoplasia type II. Patients were treated in cohorts of 6 with escalating QD (once per day) doses of the maleate salt of compound 1 under fasting conditions. Each study cycle of 5 weeks consisted of 4 weeks of treatment followed by 1 week of rest (4/1 schedule), or continuous dosing without any rest period.
Full pharmacokinetic profiles were collected on Cycle 1 Day 1 (C1D1), Cycle 1 Day 28 (C1D28), and Cycle 2 Day 28 (C2D28). Preliminary pharmacokinetic parameters for the first 44 patients, i.e. the first 7 dosing groups, were estimated using nominal collection times and quality-controlled, non-quality assured bioanalytical data. The dosage amounts in Table 1A and Table 1B are free base equivalent amounts.

Question: With `Cc1[nH]c(/C=C2\C(=O)Nc3ccc(F)cc32)c(C)c1C(=O)NC[C@H](O)CN1CCOCC1` [compound 1, 5-[(Z)-(5-fluoro-2-oxo-1,2-dihydro-3H-indol-3-ylidene)methyl]-N-[(2S)-2-hydroxy-3-morpholin-4-ylpropyl]-2,4-dimethyl-1H-pyrrole-3-carboxamide] as the compound, how does the half-life (human, plasma, 200 mg, 200 mg QD (4/1), C1D1 (n = 6), plasma, read-out: t½, mean (% CV) (converted)) read?
Answer: 18.8 h

Question: And the AUC(0-t) (human, plasma, 200 mg, 200 mg QD (4/1), C1D28 (n = 5), plasma, read-out: AUC(0-24), mean (% CV))?
Answer: 8210 ng·h/mL

Question: And the concentration at 24 h (human, plasma, 200 mg, 200 mg QD (4/1), C1D28 (n = 5), plasma, read-out: C(trough, 24 h), mean (% CV))?
Answer: 259 ng/mL

Question: And the Cmax (human, plasma, 200 mg, 200 mg QD (4/1), C1D28 (n = 5), plasma, read-out: Cmax, mean (% CV))?
Answer: 561 ng/mL

Question: What about the Tmax (human, plasma, 200 mg, 200 mg QD (4/1), C1D28 (n = 5), plasma) of the same compound?
Answer: 6.6 h

Question: And the half-life (human, plasma, 200 mg, 200 mg QD (4/1), C1D28 (n = 5), plasma, read-out: t½, mean (% CV) (converted))?
Answer: 26.9 h

Question: What about the AUC(0-t) (human, plasma, 200 mg, 200 mg QD (4/1), C2D28 (n = 5), plasma, read-out: AUC(0-24), mean (% CV)) of the same compound?
Answer: 6270 ng·h/mL

Question: What about the concentration at 24 h (human, plasma, 200 mg, 200 mg QD (4/1), C2D28 (n = 5), plasma, read-out: C(trough, 24 h), mean (% CV)) of the same compound?
Answer: 211 ng/mL

Question: What about the Cmax (human, plasma, 200 mg, 200 mg QD (4/1), C2D28 (n = 5), plasma, read-out: Cmax, mean (% CV)) of the same compound?
Answer: 375 ng/mL

Question: What about the Tmax (human, plasma, 200 mg, 200 mg QD (4/1), C2D28 (n = 5), plasma) of the same compound?
Answer: 5.6 h

Question: What about the half-life (human, plasma, 200 mg, 200 mg QD (4/1), C2D28 (n = 5), plasma, read-out: t½, mean (% CV) (converted)) of the same compound?
Answer: 15.3 h

Question: What about the concentration at 3 h (human, plasma, 250 mg QD, 250 mg QD 4/1 (n = 6), nominal time 3 h, read-out: Mean plasma concentration following the last dose on cycle 1 day 28) of the same compound?
Answer: 250 ng/mL

Question: What about the concentration at 4 h (human, plasma, 250 mg QD, 250 mg QD 4/1 (n = 6), read-out: Mean plasma concentration following the last dose on cycle 1 day 28) of the same compound?
Answer: 200 ng/mL

Question: What about the concentration at 6 h (human, plasma, 250 mg QD, 250 mg QD 4/1 (n = 6), nominal time 6 h, read-out: Mean plasma concentration following the last dose on cycle 1 day 28) of the same compound?
Answer: 157 ng/mL

Question: What about the concentration at 8 h (human, plasma, 250 mg QD, 250 mg QD 4/1 (n = 6), nominal time 8 h, read-out: Mean plasma concentration following the last dose on cycle 1 day 28) of the same compound?
Answer: 161 ng/mL

Question: What about the concentration at 10 h (human, plasma, 250 mg QD, 250 mg QD 4/1 (n = 6), nominal time 10 h, read-out: Mean plasma concentration following the last dose on cycle 1 day 28) of the same compound?
Answer: 141 ng/mL

Question: And the concentration at 0 h (human, plasma, 250 mg, 250 mg QD 4/1 (n = 6), nominal time 0 h, read-out: Mean plasma concentration following the last dose on cycle 1 day 28)?
Answer: 64.5 ng/mL

Question: What about the concentration at 1 h (human, plasma, 250 mg, 250 mg QD 4/1 (n = 6), nominal time 1 h, read-out: Mean plasma concentration following the last dose on cycle 1 day 28) of the same compound?
Answer: 107 ng/mL

Question: And the concentration at 2 h (human, plasma, 250 mg, 250 mg QD 4/1 (n = 6), nominal time 2 h, read-out: Mean plasma concentration following the last dose on cycle 1 day 28)?
Answer: 177 ng/mL

Question: What about the concentration at 20 h (human, plasma, 250 mg, 250 mg QD 4/1 (n = 6), nominal time 20 h, read-out: Mean plasma concentration following the last dose on cycle 1 day 28) of the same compound?
Answer: 53.6 ng/mL

Question: What about the concentration at 24 h (human, plasma, 250 mg, 250 mg QD 4/1 (n = 6), nominal time 24 h, read-out: Mean plasma concentration following the last dose on cycle 1 day 28) of the same compound?
Answer: 63 ng/mL

Question: And the AUC(0-t) (human, plasma, 250 mg, 250 mg QD (4/1), C1D1 (n = 6), plasma, read-out: AUC(0-24), mean (% CV))?
Answer: 7580 ng·h/mL

Question: And the concentration at 24 h (human, plasma, 250 mg, 250 mg QD (4/1), C1D1 (n = 6), plasma, read-out: C(trough, 24 h), mean (% CV))?
Answer: 143 ng/mL

Question: What about the Cmax (human, plasma, 250 mg, 250 mg QD (4/1), C1D1 (n = 6), plasma, read-out: Cmax, mean (% CV)) of the same compound?
Answer: 848 ng/mL

Question: What about the Tmax (human, plasma, 250 mg, 250 mg QD (4/1), C1D1 (n = 6), plasma) of the same compound?
Answer: 3.7 h

Question: What about the half-life (human, plasma, 250 mg, 250 mg QD (4/1), C1D1 (n = 6), plasma, read-out: t½, mean (% CV) (converted)) of the same compound?
Answer: 11.5 h

Question: And the AUC(0-t) (human, plasma, 250 mg, 250 mg QD (4/1), C1D28 (n = 4), plasma, read-out: AUC(0-24), mean (% CV))?
Answer: 9810 ng·h/mL

Question: What about the concentration at 24 h (human, plasma, 250 mg, 250 mg QD (4/1), C1D28 (n = 4), plasma, read-out: C(trough, 24 h), mean (% CV)) of the same compound?
Answer: 246 ng/mL

Question: What about the Cmax (human, plasma, 250 mg, 250 mg QD (4/1), C1D28 (n = 4), plasma, read-out: Cmax, mean (% CV)) of the same compound?
Answer: 734 ng/mL

Question: And the Tmax (human, plasma, 250 mg, 250 mg QD (4/1), C1D28 (n = 4), plasma)?
Answer: 4.5 h

Question: What about the half-life (human, plasma, 250 mg, 250 mg QD (4/1), C1D28 (n = 4), plasma, read-out: t½, mean (% CV) (converted)) of the same compound?
Answer: 22.4 h

Question: What about the concentration at 24 h (human, plasma, 250 mg, 250 mg QD (4/1), C2D28 (n = 4), plasma, read-out: C(trough, 24 h), mean (% CV)) of the same compound?
Answer: 279 ng/mL

Question: And the Cmax (human, plasma, 250 mg, 250 mg QD (4/1), C2D28 (n = 4), plasma, read-out: Cmax, mean (% CV))?
Answer: 748 ng/mL

Question: What about the Tmax (human, plasma, 250 mg, 250 mg QD (4/1), C2D28 (n = 4), plasma) of the same compound?
Answer: 5.5 h

Question: What about the half-life (human, plasma, 250 mg, 250 mg QD (4/1), C2D28 (n = 4), plasma, read-out: t½, mean (% CV) (converted)) of the same compound?
Answer: 13.2 h

Question: What about the half-life (human, plasma, 4/1 schedule, blood samples for 144 hours after the last dose on Day 28, across the dose groups, read-out: longer t1/2, mean estimates) of the same compound?
Answer: 13.2 to 26.9 h

Question: What about the half-life (human, plasma, C1D1, across dose groups, read-out: mean terminal plasma half-life (t1/2) over 24 hours after dosing) of the same compound?
Answer: 10.8 to 18.8 h

Question: What about the concentration at 12 h (human, plasma, oral, 25 mg QD, 25 mg QD 4/1 (n = 6), read-out: Mean plasma concentration following the last dose on cycle 1 day 28) of the same compound?
Answer: 30.1 ng/mL

Question: What about the concentration at 4 h (human, plasma, oral, 25 mg, 25 mg QD 4/1 (n = 6), read-out: Mean plasma concentration following the last dose on cycle 1 day 28) of the same compound?
Answer: 58.3 ng/mL

Question: What about the AUC(0-t) (human, plasma, oral, 25 mg, 25 mg QD (4/1), C2D28 (n = 5), plasma, read-out: AUC(0-24), mean (% CV)) of the same compound?
Answer: 794 ng·h/mL

Question: What about the concentration at 24 h (human, plasma, oral, 25 mg, 25 mg QD (4/1), C2D28 (n = 5), plasma, read-out: C(trough, 24 h), mean (% CV)) of the same compound?
Answer: 21.4 ng/mL

Question: And the AUC(0-t) (human, plasma, oral, 25 mg, one patient excluded from the mean, 25 mg QD 4/1, C2D28, read-out: AUC(0-24))?
Answer: 7000 ng·h/mL

Question: And the Cmax (human, plasma, oral, 25 mg, one patient excluded from the mean, 25 mg QD 4/1, C2D28, read-out: Cmax)?
Answer: 394 ng/mL

Question: And the concentration at 12 h (human, plasma, oral, 50 mg QD, 50 mg QD 4/1 (n = 5), read-out: Mean plasma concentration following the last dose on cycle 1 day 28)?
Answer: 50.4 ng/mL

Question: And the concentration at 4 h (human, plasma, oral, 50 mg, 50 mg QD 4/1 (n = 5), read-out: Mean plasma concentration following the last dose on cycle 1 day 28)?
Answer: 81.1 ng/mL

Question: What about the concentration at 12 h (human, plasma, oral, 100 mg QD, 100 mg QD 4/1 (n = 6), read-out: Mean plasma concentration following the last dose on cycle 1 day 28) of the same compound?
Answer: 204 ng/mL

Question: What about the concentration at 12 h (human, plasma, oral, 100 mg, 100 mg QD Continuous (n = 4), read-out: Mean plasma concentration following the last dose on cycle 1 day 28) of the same compound?
Answer: 377 ng/mL

Question: What about the concentration at 12 h (human, plasma, oral, 150 mg QD, 150 mg QD 4/1 (n = 5), read-out: Mean plasma concentration following the last dose on cycle 1 day 28) of the same compound?
Answer: 91.3 ng/mL

Question: And the concentration at 4 h (human, plasma, oral, 150 mg, 150 mg QD 4/1 (n = 5), read-out: Mean plasma concentration following the last dose on cycle 1 day 28)?
Answer: 231 ng/mL

Question: What about the concentration at 12 h (human, plasma, oral, 150 mg, 150 mg QD Continuous (n = 6), read-out: Mean plasma concentration following the last dose on cycle 1 day 28) of the same compound?
Answer: 465 ng/mL

Question: What about the concentration at 12 h (human, plasma, oral, 200 mg, 200 mg QD 4/1 (n = 5), read-out: Mean plasma concentration following the last dose on cycle 1 day 28) of the same compound?
Answer: 355 ng/mL

Question: What about the concentration at 12 h (human, plasma, oral, 250 mg, 250 mg QD 4/1 (n = 6), read-out: Mean plasma concentration following the last dose on cycle 1 day 28) of the same compound?
Answer: 130 ng/mL

Question: And the AUC(0-t) (human, plasma, oral, 250 mg, 250 mg QD (4/1), C2D28 (n = 4), plasma, read-out: AUC(0-24), mean (% CV))?
Answer: 9770 ng·h/mL

Question: And the half-life (human, plasma, oral, patients with solid tumors, read-out: effective t1/2 of elimination from plasma)?
Answer: 11 to 19 h

Question: What about the concentration at 1 week (human, extrapolating beyond the measured plasma concentrations at 144 hours, rest period after the last dose of Cycle 1, read-out: concentration prior to the start of dosing in the following cycle) of the same compound?
Answer: < 5 ng/mL

Question: And the “higher exposures on C2D28 compared with C1D28” value (one patient excluded from the mean, 25 mg QD 4/1)?
Answer: approximately 5 fold

Question: What about the “accumulation of the drug with continuous dosing” value of the same compound?
Answer: no unexpected accumulation

Question: What about the “accumulation of the drug with continuous dosing” value (listed as compound of formula 1) of the same compound?
Answer: no unexpected drug accumulation
